Results from PMC3901259, “Characterisation of the Metabolites of 1,8-Cineole Transferred into Human Milk: Concentrations and Ratio of Enantiomers” (Metabolites, 2013).

Tests used:
[1] = design: method as in PMID 20425757; details: one volunteer, sage tea, overall intake 1.02 mg 1,8-cineole; cited from earlier work
[2] = Quantification of 1,8-cineole metabolites in human milk (SAFE, GC-MS, internal standard and matrix calibration) after oral intake of 100 mg 1,8-cineole; format: in vivo; details: for Absolute concentration in human milk: single determination
Excerpt: Human milk samples were provided voluntarily by breastfeeding mothers after intake of the non-prescription pharmaceutical Soledum® (Klosterfrau Healthcare Group, Cologne, Germany). Before the beginning of the study, the participants were informed verbally, as well as in written form, about the study procedure and purpose and they were told that withdrawing from the study was possible at any time without giving any reason. All volunteers gave written consent to the analysis of their milk samples and anonymous publication of the resulting data. The Ethical Committee of the Medical Faculty, University Erlangen-Nuremberg, approved the experimental procedures. Each participant was handed a copy of the Soldeum® package instructions and was advised to read it before capsule intake. They were also advised to withdraw from the study if any negative reactions such as medication allergies or interactions with other drugs they were taking were to be expected. Additionally, the volunteers were informed verbally about potential effects of the pharmaceutical preparation on breastfeeding, i.e. the risk of an altered milk flavour and rejection of the milk by the nursling. Accordingly, if this would happen, the mothers were recommended to feed their babies with stored human milk or formula milk products.
The milk donors were between the ages of 29 and 40 years (mean 34 years). During their participation in the study, their breast milk production had to be normal and in excess of their infants' needs, with no breast infections and no overall medical complaints present. Five participants were primiparous, three were multiparous and the breast milk samples were from 19 weeks to 19 months postpartum. For sampling, either electrical or mechanical breast pumps or manual expression techniques were applied, resulting in sample volumes between 10 and 100 mL. The samples were immediately subjected to sample preparation after a maximum storage time of five hours at 7 °C or were stored in a freezer at −20 °C for up to five days.
The participating volunteers were asked to ingest one Soledum® capsule, containing 100 mg 1,8-cineole, and to wait until they themselves or another person began to notice the eucalyptus-like odour on their breath. […] The donors were instructed to keep notes on the dates of capsule intake, first eucalyptus-like odour on their breath and exact sampling time. Unfortunately it was difficult for some mothers to detect the smell on their breath so they expressed the samples after some time without having noticed the smell, or reported having been unsure about the smell. […] Some of the donors repeated the whole experiment and some expressed more than one sample after the capsule intake, resulting in 14 samples in total, from 8 different mothers.
Extracts containing the volatile fraction of the human milk samples were prepared by Solvent Assisted Flavour Evaporation (SAFE) after addition of deuterated 1,8-cineole as internal standard (solution in dichloromethane), followed by 10 min of stirring, then another addition of dichloromethane (50% v/v), and 30 min of stirring. The resulting stable phase was distilled in the SAFE-apparatus at 50 °C and approximately 1x10^−4 mbar. The volatile fraction of the samples was frozen with liquid nitrogen. After thawing, it consisted of two phases, formed by the dichloromethane and by the water out of the milk. The water phase was extracted three times with dichloromethane, and the solvent phases were combined and dried over anhydrous Na2SO4. Finally the sample extracts were concentrated by microdistillation according to Bemelmans at 50 °C to a total volume of 50 to 200 μL.
For GC-MS analyses, an Agilent MSD quadrupole system (GC 7890A with MSD 5975C, Agilent Technologies, Waldbronn, Germany) coupled with a CIS 4C (cooled injection system) and an MPS 2 auto-sampler (Gerstel GmbH & Co. KG, Duisburg, Germany) were used. […]

[3] = Determination of the ratios of enantiomers of chiral metabolites in human milk on chiral GC capillaries; format: in vivo
Excerpt: The separation of the chiral metabolites of 1,8-cineole was successfully achieved using different β- or γ-cyclodextrin-based stationary phases (Rt-bDEXsa, Rt-bDEXse, Rt-bDEXsm and Rt-yDEXsa) for gas chromatographic analysis. Table S1, in the supplementary material, lists the usable separation phases and the respective retention indices (determined according to van den Dool and Kratz) for each pair of enantiomers. It was therefore decided to use the following capillaries for the analysis of the human milk samples: Rt-bDEXsm for separation of 2,3-dehydro-, α2,3-epoxy-, 2-oxo-, 3-oxo- and 9-hydroxy-1,8-cineole, and Rt-yDEXsa for separation of α2-hydroxy-, α3-hydroxy- and β2-hydroxy-1,8-cineole, under the GC conditions described in the experimental section.
For GC-MS analyses, an Agilent MSD quadrupole system (GC 7890A with MSD 5975C, Agilent Technologies, Waldbronn, Germany) coupled with a CIS 4C (cooled injection system) and an MPS 2 auto-sampler (Gerstel GmbH & Co. KG, Duisburg, Germany) were used. Data collection and analysis were performed with the MSD ChemStation E.02.00.493 (Agilent Technologies, Inc.) software. Quantification experiments were carried out on DB-FFAP and DB-5 capillaries (30 m length, 0.25 mm inner diameter, 0.25 µm film thickness, Agilent J&W GC Columns, USA), and for monitoring of the ratio of enantiomers the chiral capillaries Rt-bDEXsa, Rt-bDEXse, Rt-bDEXsm and Rt-yDEXsa (30 m length, 0.32 mm inner diameter, 0.25 µm film thickness, Restek GmbH, Bad Homburg, Germany) were utilised. Pre-columns of uncoated, deactivated fused silica (0.53 mm inner diameter, 0.5 to 3.5 m length) were used to ensure that no potentially present low-volatile residues could contaminate the analytical capillaries. The temperature programme of the column oven was as follows: 40 °C for 2 min, 4 °C/min up to 170 °C, 40 °C/min up to 230 °C (Rt-DEX capillaries), 240 °C (DB-FFAP) and 250 °C (DB-5), respectively, and hold time at end temperature of 5 to 10 min. As carrier gas, helium was used at a flow rate of 1.3 mL/min (velocity 41.1 cm/s). Injection of 1 or 2 µL was performed by the auto-sampler.
For the separation of the pairs of enantiomers of the chiral metabolites of 1,8-cineole, four different capillaries (Rt-bDEXsa, Rt-bDEXse, Rt-bDEXsm, and Rt-yDEXsa) were evaluated for optimisation of the peak-to-peak resolution of the enantiomers by injecting a mixture of all the metabolites in a dichloromethane solution and by varying the heating rate. Besides the separation of each pair of enantiomers from each other, it was also important to confirm that no other metabolite coeluted with any one of the enantiomers, because the milk samples would most probably contain all metabolites. Moreover, the separation conditions for the mixture of reference substances were also tested on some human milk sample extracts and modified accordingly, where necessary, to avoid coelution with interfering matrix compounds.
For calculation of the ratio of enantiomers (that is, the relative abundance of each enantiomer to the not separated mixture of enantiomers), the peak area of each enantiomer was divided by the sum of the peak areas of both enantiomers and multiplied by 100. With the known concentrations of the chiral metabolites in each milk sample, the absolute concentration of each single enantiomer was also calculated by multiplying the concentration with the respective percentage.

[4] = sample A-1b (odour yes), oral 100 mg 1,8-cineole, values given with (<x) are approximations
[5] = sample B-1 (odour yes), oral 100 mg 1,8-cineole, values given with (<x) are approximations
[6] = sample B-2b (odour yes), oral 100 mg 1,8-cineole, values given with (<x) are approximations
[7] = sample B-2c (no odour), oral 100 mg 1,8-cineole
[8] = sample C (no odour; very weak odour not caused by 1,8-cineole), oral 100 mg 1,8-cineole, values given with (<x) are approximations
[9] = sample D-1 (no odour), oral 100 mg 1,8-cineole, values given with (<x) are approximations
[10] = sample D-2 (odour yes), oral 100 mg 1,8-cineole, values given with (<x) are approximations
[11] = sample E-2 (odour yes), oral 100 mg 1,8-cineole, values given with (<x) are approximations
[12] = sample G (odour yes), oral 100 mg 1,8-cineole, values given with (<x) are approximations
[13] = sample H (odour yes), oral 100 mg 1,8-cineole, values given with (<x) are approximations
[14] = sample F (no odour), parent ingested two capsules, values given with (<x) are approximations

SMILES	Concentration in plasma [1]	Absolute concentration in human milk [2, 4] [µg/kg]	Absolute concentration in human milk [2, 5] [µg/kg]	Estimated maximum level in human milk (concentration calculated with the last calibration point, in parentheses) ([2]; sample B-2b (odour yes)) [µg/kg]	Absolute concentration in human milk [2, 6] [µg/kg]	Absolute concentration in human milk [2, 7] [µg/kg]	Estimated maximum level in human milk (concentration calculated with the last calibration point, in parentheses) ([2]; sample C (no odour)) [µg/kg]	Absolute concentration in human milk [2, 8] [µg/kg]	Estimated maximum level in human milk (concentration calculated with the last calibration point, in parentheses) ([2]; sample D-1 (no odour)) [µg/kg]	Absolute concentration in human milk [2, 9] [µg/kg]	Estimated maximum level in human milk (concentration calculated with the last calibration point, in parentheses) ([2]; sample D-2 (odour yes)) [µg/kg]	Absolute concentration in human milk [2, 10] [µg/kg]	Absolute concentration in human milk [2, 11] [µg/kg]	Estimated maximum level in human milk (concentration calculated with the last calibration point, in parentheses) ([2]; sample G (odour yes)) [µg/kg]	Absolute concentration in human milk [2, 12] [µg/kg]	Absolute concentration in human milk [2, 13] [µg/kg]	Absolute concentration in human milk [2, 14] [µg/kg]	also measured
CC12CCC(C(O)C1)C(C)(C)O2 (stereo not drawn) [a3-hydroxy-1,8-cineole, α3-Hydroxy-1,8-cineole]	below the limit of quantitation	0.77	1.06	< 2.07	0.54	0.05	< 0.96	0.05	< 1.06	0.03	< 1.92	0.41	0.96	< 3.51	0.72	1.53		Estimated maximum level in human milk (concentration calculated with the last calibration point, in parentheses) ([2]; sample A-1b (odour yes)): < 1.14 µg/kg; Estimated maximum level in human milk (concentration calculated with the last calibration point, in parentheses) ([2]; sample B-1 (odour yes)): < 1.65 µg/kg; Estimated maximum level in human milk (concentration calculated with the last calibration point, in parentheses) ([2]; sample E-2 (odour yes)): < 1.78 µg/kg; Estimated maximum level in human milk (concentration calculated with the last calibration point, in parentheses) ([2]; sample H (odour yes)): < 1.96 µg/kg
CC1(C)OC2(CO)CCC1CC2 [7-hydroxy-1,8-cineole]	below the limit of quantitation	0.56	1.14		4.42	0.18						0.62	5.19	< 1.06	0.84	1.87		Absolute concentration in human milk ([2]; sample B-2a (no odour), oral 100 mg 1,8-cineole): 0.21 µg/kg
CC1(C)OC2(C)CCC1CC2O (stereo not drawn) [b2-hydroxy-1,8-cineole, β2-hydroxy-1,8-cineole]		6.00	6.72		5.82	1.71	< 0.96	0.33		1.42		7.35	11.44		3.80	7.90		
CC12CCC(O)(CC1)C(C)(C)O2 [4-hydroxy-1,8-cineole]		5.96	6.35		5.62	2.32				2.24		7.13	8.92		3.39	5.66	3.62	
CC12CCC(C(=O)C1)C(C)(C)O2 (stereo not shown) [3-oxo-1,8-cineole]		1.80	3.32	< 2.37	1.47	0.68	< 1.10	0.14	< 1.22	0.77	< 2.20	2.12	2.41	< 4.02	3.38	3.85	0.07	Enantiomeric ratio in human milk [3]: nearly enantiomerically pure; Percentage E1, range as described for boxplot ([3]; human milk samples, Figure 5): under 10%; Estimated maximum level in human milk (concentration calculated with the last calibration point, in parentheses) ([2]; sample A-1a (no odour)): < 1.57 µg/kg; Absolute concentration in human milk ([2]; sample A-1a (no odour), oral 100 mg 1,8-cineole, values given with (<x) lie beyond calibration range, approximation): 0.01 µg/kg; Estimated maximum level in human milk (concentration calculated with the last calibration point, in parentheses) ([2]; sample F (no odour), two capsules): < 3.00 µg/kg
